Experimental data from patent US5116995A, “Carbazole compounds” (Taisho Pharmaceutical Co., Ltd., priority 1990, dated 1992).
Read-outs that look alike come from different tables or passages of the source.

Experiments:
sigma receptor [1] = target: sigma receptor (Rattus norvegicus, UniProt Q9R0C9); assay: biochemical
[2] = tested on: methamphetamine induced hyperlocomotion; assay: inhibition of Methamphetamine induced Hyperlocomotion; assay type: in vivo, mouse (male ICR); conditions: mice, test drug 50 mg/kg i.p., 35 min before methamphetamine 1 mg/kg i.p.; measured for 30 min from 15 min later; **P < 0.01 (Dunnett's test)
Protocol: Thirty male ICR mice weighing 20 to 35 g were used for each group (5 animals per test, and 6 tests). Mice were placed in the measuring cages, adapted for 60 minutes, and given intraperitoneally the test drugs in Table 1 suspended in 5% gum arabic solution in a dose of 50 mg/kg (0.1 ml/10 g of the body weight). Thirty-five minutes later, methamphetamine dissolved in physiological saline solution was given intraperitoneally in a dose of 1 mg/kg. Fifteen minutes later, the locomotor content was measured for 30 minutes using an Animex apparatus. Control group was given 5% gum arabic only in a similar manner, and […] for measurement. Results are expressed as percentage to control group in Table 2.

phencyclidine receptor [3] = conditions: rimcazole value from literature (vol. 155, page 345 (1988)); cited from earlier work
D2 receptor [4] = conditions: rimcazole value from literature (vol. 155, page 345 (1988)), [3H]spiporone binding; cited from earlier work
sigma receptor [5] = conditions: cited from earlier work
D2 receptor [6] = target: D2 receptor (Rattus norvegicus, UniProt P61169); assay: Receptor Binding Test: (-)-[3H]sulpiride binding, rat striatal membranes
phencyclidine receptor [7] = assay: Receptor Binding Test: [3H]phencyclidine binding, rat whole brain membranes; parameters: species or system rat (male Wistar); conditions: rat whole brain membrane, 5 mM Tris-HCl pH 7.7, 25° C., 2 hours
Source text: 32, page 820 (1987), respectively.

Sequence of D2 receptor (Rattus norvegicus, UniProt P61169) (P61169 whole entry): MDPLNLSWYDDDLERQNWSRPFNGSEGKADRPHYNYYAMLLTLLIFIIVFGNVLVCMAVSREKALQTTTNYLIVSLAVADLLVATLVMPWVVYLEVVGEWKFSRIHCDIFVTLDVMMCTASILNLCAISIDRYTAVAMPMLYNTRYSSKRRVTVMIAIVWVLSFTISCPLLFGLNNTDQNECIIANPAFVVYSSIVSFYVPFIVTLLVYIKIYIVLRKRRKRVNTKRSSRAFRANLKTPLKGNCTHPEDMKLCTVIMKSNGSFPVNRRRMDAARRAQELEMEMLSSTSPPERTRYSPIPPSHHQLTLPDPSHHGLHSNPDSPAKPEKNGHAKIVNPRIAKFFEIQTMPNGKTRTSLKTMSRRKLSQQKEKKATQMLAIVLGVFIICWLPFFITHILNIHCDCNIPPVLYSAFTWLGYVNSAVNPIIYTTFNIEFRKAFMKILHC
Sequence of sigma receptor (Rattus norvegicus, UniProt Q9R0C9) (Q9R0C9 whole entry): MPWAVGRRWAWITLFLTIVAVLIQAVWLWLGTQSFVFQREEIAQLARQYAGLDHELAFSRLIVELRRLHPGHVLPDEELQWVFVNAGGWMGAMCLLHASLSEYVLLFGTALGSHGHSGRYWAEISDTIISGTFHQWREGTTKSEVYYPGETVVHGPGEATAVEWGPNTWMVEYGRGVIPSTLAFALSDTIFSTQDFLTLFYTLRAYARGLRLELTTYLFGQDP

| Compound | IC50 (sigma receptor [1]) [µM] | locomotor count, % to control group [2] [%] | IC50 (phencyclidine receptor [3]) [µM] | IC50 (D2 receptor [4]) [µM] | affinity and specificity for sigma receptor (sigma receptor [5]; prior art statement) | IC50 (sigma receptor [5]; rimcazole value from literature (vol. 155, page 345 (1988))) [µM] | IC50 (D2 receptor [6]) [µM] | IC50 (phencyclidine receptor [7]) [µM] |
| --- | --- | --- | --- | --- | --- | --- | --- | --- |
| CCCN1CCCC(c2cccc(O)c2)C1 (single isomer, unassigned) [3-PPP, 3-(3-hydroxy-phenyl)-N-n-propylpiperidine, reference compound] | 0.0243 ± 0.0029 | – | – | – | – | – | – | – |
| C[C@@H]1CN(CCCn2c3ccccc3c3ccccc32)C[C@H](C)N1 [Rimcazole] | – | 51.4 | > 2000 | 86 | not sufficient | 1.46 ± 0.235 | – | – |
| CCCN(CCC)Cc1cccc2[nH]c3ccccc3c12.Cl [Test drug A, 4-(di-n-propylaminomethyl)carbazole hydrochloride] | 0.891 ± 0.0128 | 39.7 | – | – | – | – | 44.3 | > 10 |
| CCCN(CCC)Cc1cccc2[nH]c3c(C)ccc(C)c3c12.Cl [Test drug B, 5,8-dimethyl-4-(di-n-propylaminomethyl)carbazole hydrochloride] | 1.02 ± 0.131 | 46.6 | – | – | – | – | 23.2 | > 10 |
| CCCN(CCC)CCc1cccc2[nH]c3c(C)ccc(C)c3c12.Cl [Test drug C, 5,8-dimethyl-4-(2-di-n-propylaminoethyl)carbazole hydrochloride] | 0.0048 ± 0.001 | 35.3 | – | – | – | – | 14.3 | > 10 |
